From US8399683B2 (TetraLogic Pharmaceuticals, priority 2008, dated 2013)

Key:
SK-OV-3 cells = test: Growth inhibition of ovarian cancer cell line SK-OV-3 (MTT assay, cell survival); format: cell-based; conditions: Homo sapiens, drug concentration that results in 50% cell survival, 72 hrs incubation, reported as ranges
Description: Compounds of the invention also were tested for their ability to inhibit the growth of an ovarian cancer cell line, SK-OV-3. A known assay previously used for measuring cell growth (as described in Hansen, M. B., Nielsen, S. E., and Berg, K. (1989) J. Immunol. Methods 119, 203-210 and incorporated herein by reference in its entirety) was used. Briefly, SK-OV-3 cells are seeded in 96-well plates in McCoy's medium containing 10% fetal bovine serum albumin (5,000 per well) and incubated overnight at 37° C. The next day, test compounds are added at various concentrations (0.003-10 μM) and the plates are incubated at 37° C. for an additional 72 hrs. This incubation time was considered to be optimal for measuring inhibitory effects of the different compounds tested. 50 microliters of 5 mg/mL MTT reagent is added to each well and the plates are incubated at 37° C. for another three (3) hours. At the end of the three (3) hour incubation period, 50 microliters of DMSO is added to each well to dissolve cells and the optical density (OD) of the wells is measured with a microplate reader (Victor^2 1420, Wallac, Finland) at 535 nm. Cell survival (CS) was calculated using the following equation: CS=(OD treated well/mean OD control wells)×100%.
The CC50 (reported in the following tables), is defined as the drug concentration that results in 50% cell survival (CS), and is derived by calculating the point where the dose-response curve crosses the 50% CS point using GraphPad Prism. The reported CC50 values are supplied as ranges (A=<0.1 μM, B=0.1 μM to 1 μM, C=>1 μM to 10 μM, D=>10 μM).

cIAP-1 BIR-3 = cIAP-1 BIR-3 (Homo sapiens, UniProt Q13490); test: Fluorescence polarization binding affinity to cIAP-1 BIR-3 (competition with AbuRPF-K(5-Fam)-NH2); conditions: 5 nM labeled peptide, 40 nM BIR3, 15 min at RT, pH 7.5; reported as ranges; read-out: KD (c-IAP-1 BIR3)
Description: (§1) The binding affinities of the compounds are reported as a KD value (μM). Briefly, various concentrations of test peptides were mixed with 5 nM of the fluorescently labeled peptide (i.e., a mutated N-terminal Smac peptide—AbuRPF-K(5-Fam)-NH2) and 40 nM of the respective IAP BIR3 for 15 min at RT in […] of 0.1M Potassium Phosphate buffer, pH 7.5 containing […] bovine g-globulin. Following incubation, the polarization values (mP) were measured on a Victor2V (available from PerkinElmer Life Sciences) using a 485 nm excitation filter and a 520 nm emission filter. The reported KD values are supplied as ranges (A=<0.1 μM, B=0.1 μM to 1 μM, C>1 μM to 10 μM, D=>10 μM).

XIAP BIR-3 = target: T1, XIAP BIR-3 (Homo sapiens, UniProt P98170); test: Fluorescence polarization binding affinity to XIAP BIR-3 (competition with AbuRPF-K(5-Fam)-NH2); conditions: 5 nM labeled peptide, 40 nM BIR3, 15 min at RT, pH 7.5; reported as ranges
T1 construct: 40 nM of the respective IAP BIR3
Description: as §1

T1 sequence (P98170 241-356 limits assumed): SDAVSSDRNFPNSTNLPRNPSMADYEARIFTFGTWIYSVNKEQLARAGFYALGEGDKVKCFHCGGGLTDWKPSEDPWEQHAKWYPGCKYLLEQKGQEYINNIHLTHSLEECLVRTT
Chain of cIAP-1 BIR-3 (Q13490 266-352 limits assumed): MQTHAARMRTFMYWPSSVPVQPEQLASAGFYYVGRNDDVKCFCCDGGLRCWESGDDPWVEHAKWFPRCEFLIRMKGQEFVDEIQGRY

SMILES	Kd (cIAP-1 BIR-3)	Kd (XIAP BIR-3)	CC50 (SK-OV-3 cells)
CN[C@@H](C)C(=O)N[C@@H](CO)C(=O)N1CC[C@@H]2[C@H]1[C@@H](c1c[nH]c3cc(F)ccc13)CN2Cc1ccccc1 [Example 103]	100 to 1000 nM	1000 to 10000 nM	1000 to 10000 nM
CN[C@@H](C)C(=O)N[C@@H](CO)C(=O)N1CC[C@@H]2[C@H]1[C@H](c1c[nH]c3cc(F)ccc13)CN2S(C)(=O)=O [Example 51, N-{2-[6-(6-Fluoro-1H-indol-3-yl)-4-methanesulfonyl-hexahydro-pyrrolo[3,2-b]pyrrol-1-yl]-1-hydroxymethyl-2-oxo-ethyl}-2-methylamino-propionamide]	1000 to 10000 nM	> 10000 nM	> 10000 nM
CN[C@@H](C)C(=O)N[C@H](C(=O)N1CC[C@@H]2[C@H]1[C@H](c1c[nH]c3cc(F)ccc13)CN2S(C)(=O)=O)[C@@H](C)O [Example 55, N-{1-[6-(6-Fluoro-1H-indol-3-yl)-4-methanesulfonyl-hexahydro-pyrrolo[3,2-b]pyrrole-1-carbonyl]-2-hydroxy-propyl}-2-methylamino-propionamide]	1000 to 10000 nM	> 10000 nM	> 10000 nM
CN[C@@H](C)C(=O)N[C@H](C(=O)N1CC[C@@H]2[C@H]1[C@@H](c1c[nH]c3cc(F)ccc13)CN2C1CCN(C)CC1)C1CCCCC1 [Example 22, N-{1-Cyclohexyl-2-[6-(6-fluoro-1H-indol-3-yl)-4-(1-methyl-piperidin-4-yl)-hexahydro-pyrrolo[3,2-b]pyrrol-1-yl]-2-oxo-ethyl}-2-methylamino-propionamide]	< 100 nM	100 to 1000 nM	100 to 1000 nM
CN[C@@H](C)C(=O)N[C@H](C(=O)N1CC[C@@H]2[C@H]1[C@H](c1c[nH]c3cc(F)ccc13)CN2C(C)=O)C1CCCCC1 [Example 96]	100 to 1000 nM	1000 to 10000 nM	1000 to 10000 nM
CN[C@@H](C)C(=O)N[C@H](C(=O)N1CC[C@@H]2[C@H]1[C@@H](c1c[nH]c3cc(F)ccc13)CN2Cc1ccccc1)C(C)C [Example 105]	< 100 nM	100 to 1000 nM	< 100 nM
CN[C@@H](C)C(=O)N[C@H](C(=O)N1CC[C@@H]2[C@H]1[C@@H](c1c[nH]c3cc(F)ccc13)CN2C(=O)c1ccccc1)C1CCCCC1 [Example 38, N-{2-[4-Benzoyl-6-(6-fluoro-1H-indol-3-yl)-hexahydro-pyrrolo[3,2-b]pyrrol-1-yl]-1-cyclohexyl-2-oxo-ethyl}-2-methylamino-propionamide]	< 100 nM	< 100 nM	< 100 nM
CC[C@H](NC(=O)[C@H](C)NC)C(=O)N1CC[C@@H]2[C@H]1[C@@H](c1c[nH]c3cc(F)ccc13)CN2C(C)=O [Example 60, N-{1-[4-Acetyl-6-(6-fluoro-1H-indol-3-yl)-hexahydro-pyrrolo[3,2-b]pyrrole-1-carbonyl]-propyl}-2-methylamino-propionamide]	< 100 nM	< 100 nM	< 100 nM
CN[C@@H](C)C(=O)N[C@@H](COC)C(=O)N1CC[C@H]2NC[C@H](c3c[nH]c4cc(F)ccc34)[C@H]21 [Example 34, N-{2-[6-(6-Fluoro-1H-indol-3-yl)-hexahydro-pyrrolo[3,2-b]pyrrol-1-yl]-1-methoxymethyl-2-oxo-ethyl}-2-methylamino-propionamide]	< 100 nM	< 100 nM	1000 to 10000 nM

The next lines start with results.

Kd (cIAP-1 BIR-3)	Kd (XIAP BIR-3)	SMILES	CC50 (SK-OV-3 cells)
< 100 nM	100 to 1000 nM	CN[C@@H](C)C(=O)N[C@H](C(=O)N1CC[C@H]2NC[C@H](c3c[nH]c4cc(F)ccc34)[C@H]21)C(C)(C)C [Example 31, N-{1-[6-(6-Fluoro-1H-indol-3-yl)-hexahydro-pyrrolo[3,2-b]pyrrole-1-carbonyl]-2,2-dimethyl-propyl}-2-methylamino-propionamide]	< 100 nM
< 100 nM	100 to 1000 nM	CN[C@@H](C)C(=O)N[C@H](C(=O)N1CC[C@@H]2[C@H]1[C@@H](c1c[nH]c3cc(F)ccc13)CN2CC(=O)O)C1CCCCC1 [Example 42, [4-[2-Cyclohexyl-2-(2-methylamino-propionylamino)-acetyl]-3-(6-fluoro-1H-indol-3-yl)-hexahydro-pyrrolo[3,2-b]pyrrol-1-yl]-acetic acid]	1000 to 10000 nM
< 100 nM	< 100 nM	CN[C@@H](C)C(=O)N[C@H](C(=O)N1CC[C@@H]2[C@H]1[C@@H](c1c[nH]c3cc(F)ccc13)CN2S(C)(=O)=O)C(C)O (stereo partly drawn) [Example 56]	< 100 nM
< 100 nM	< 100 nM	CN[C@@H](C)C(=O)N[C@H](C(=O)N1CC[C@@H]2[C@H]1[C@@H](c1c[nH]c3cc(F)ccc13)CN2c1ncccn1)[C@@H](C)OC [Example 83, N-{1-[6-(6-Fluoro-1H-indol-3-yl)-4-pyrimidin-2-yl-hexahydro-pyrrolo[3,2-b]pyrrole-1-carbonyl]-2-methoxy-propyl}-2-methylamino-propionamide]	< 100 nM
< 100 nM	< 100 nM	CN[C@@H](C)C(=O)N[C@H](C(=O)N1CC[C@@H]2[C@H]1[C@@H](c1c[nH]c3cc(F)ccc13)CN2Cc1ccccc1)C1CCCCC1 [Example 107]	100 to 1000 nM
< 100 nM	< 100 nM	CN[C@@H](C)C(=O)N[C@H](C(=O)N1CC[C@@H]2[C@H]1[C@@H](c1c[nH]c3ccc(F)cc13)CN2C(C)=O)[C@@H](C)OC [Example 71, N-{1-[4-Acetyl-6-(5-fluoro-1H-indol-3-yl)-hexahydro-pyrrolo[3,2-b]pyrrole-1-carbonyl]-2-methoxy-propyl}-2-methylamino-propionamide]	< 100 nM
< 100 nM	< 100 nM	CC[C@H](NC(=O)[C@H](C)NC)C(=O)N1CC[C@H]2NC[C@H](c3c[nH]c4cc(F)ccc34)[C@H]21 [Example 29, N-{1-[6-(6-Fluoro-1H-indol-3-yl)-hexahydro-pyrrolo[3,2-b]pyrrole-1-carbonyl]-propyl}-2-methylamino-propionamide]	100 to 1000 nM
< 100 nM	100 to 1000 nM	CN[C@@H](C)C(=O)N[C@H](C(=O)N1CC[C@@H]2[C@H]1[C@@H](c1c[nH]c3cc(F)ccc13)CN2C1CCCC1)[C@@H](C)OC [Example 16, N-{1-[4-Cyclopentyl-6-(6-fluoro-1H-indol-3-yl)-hexahydro-pyrrolo-[3,2-b]pyrrole-1-carbonyl]-2-methoxy-propyl}-2-methylamino-propionamide]	100 to 1000 nM
< 100 nM	< 100 nM	CN[C@@H](C)C(=O)N[C@H](C(=O)N1CC[C@@H]2[C@H]1[C@@H](c1c[nH]c3cc(F)ccc13)CN2C1CCCCC1)C1CCCCC1 [Example 20, N-{1-Cyclohexyl-2-[4-cyclohexyl-6-(6-fluoro-1H-indol-3-yl)-hexahydro-pyrrolo[3,2-b]pyrrol-1-yl]-2-oxo-ethyl}-2-methylamino-propionamide]	100 to 1000 nM
< 100 nM	100 to 1000 nM	CC[C@H](NC(=O)[C@H](C)NC)C(=O)N1CC[C@@H]2[C@H]1[C@@H](c1c[nH]c3cc(F)ccc13)CN2c1ncccn1 [Example 78, N-{1-[6-(6-Fluoro-1H-indol-3-yl)-4-pyrimidin-2-yl-hexahydro-pyrrolo[3,2-b]pyrrole-1-carbonyl]-propyl}-2-methylamino-propionamide]	< 100 nM
